The term IC50 denotes the midpoint of a concentration-inhibition curve.

IC50 data for 32 molecules are collected here from patent US8653096B2, “Chemokine receptor antagonists and methods of use thereof” (Millennium Pharmaceuticals, Inc., priority 2001, dated 2014).

The experiment deals with T1, RANTES/MIP-1α chemokine receptor (CCR1) in THP-1 cell membranes (Homo sapiens, UniProt P32246).
T1 construct: Membranes were prepared from THP-1 cells (ATCC #TIB202); host or cells: THP-1 cells (membrane preparation)
T1 sequence (P32246 1-355): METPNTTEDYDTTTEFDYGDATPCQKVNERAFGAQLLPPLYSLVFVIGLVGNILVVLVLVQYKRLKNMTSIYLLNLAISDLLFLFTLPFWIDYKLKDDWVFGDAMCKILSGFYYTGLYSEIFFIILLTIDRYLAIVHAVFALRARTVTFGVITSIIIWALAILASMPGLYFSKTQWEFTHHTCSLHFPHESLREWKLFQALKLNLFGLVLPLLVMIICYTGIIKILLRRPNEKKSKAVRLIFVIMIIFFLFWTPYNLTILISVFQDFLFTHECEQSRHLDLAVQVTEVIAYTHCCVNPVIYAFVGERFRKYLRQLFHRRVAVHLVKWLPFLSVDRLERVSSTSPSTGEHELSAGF
The experiment can be described thus: Receptor binding assay: 125I-RANTES or 125I-MIP-1α binding to THP-1 cell membranes. The following applies: inhibitor concentration required for 50% inhibition of specific binding; 125I-RANTES or 125I-MIP-1α as ligand, THP-1 cell membranes; read-out: IC50.
Consider `OC1(c2ccc(Cl)cc2)CCN(CCC=C2c3cc(Br)ccc3OCc3ccsc32)CC1` [Example 38, 1-[3-(8-Bromo-4,10-dihydrothieno[3,2-c][1]benzoxepin-10-ylidene)propyl]piperidin-4-(4-chlorophenyl)-4-ol], for which the IC50 was < 1 µM. The figure for `O=C1Nc2ccccc2C(=CCCN2CCC(O)(c3ccc(Cl)cc3)CC2)c2ccccc21` [Example 39, 4-(4-Chlorophenyl)-1-[3-(6,11-dihydro-6-oxo-5H-dibenz[b,e]azepin-11-ylidene)propyl]piperidin-4-ol] is < 10 µM; for `CCN1C(=O)c2ccccc2C(=CCCN2CCC(O)(c3ccc(Cl)cc3)CC2)c2ccccc21` [Example 40, 4-(4-Chlorophenyl)-1-[3-(6,11-dihydro-5-ethyl-6-oxo-5H-dibenz[b,e]azepin-11-ylidene)propyl]piperidin-4-ol] it is < 1 µM; for `CCCCN1C(=O)c2ccccc2C(=CCCN2CCC(O)(c3ccc(Cl)cc3)CC2)c2ccccc21` [Example 41, 1-[3-(5-n-Butyl-6,11-dihydro-6-oxo-5H-dibenz[b,e]azepin-11-ylidene)propyl]-4-(4-chlorophenyl)-piperidin-4-ol] it is < 1 µM. The result for `O=C1c2ccccc2C(=CCCN2CCC(O)(c3ccc(Cl)cc3)CC2)c2ccccc2N1CCCO` [Example 42, 4-(4-Chlorophenyl)-1-[3-(6,11-dihydro-5-(3-hydroxypropyl)-6-oxo-5H-dibenz[b,e]azepin-11-ylidene)propyl]piperidin-4-ol] reads < 1 µM; that for `CC(C)(C)OC(=O)CN1C(=O)c2ccccc2C(=CCCN2CCC(O)(c3ccc(Cl)cc3)CC2)c2ccccc21` [Example 43, 1-[3-(5-tert-Butoxycarbonymethyl-6,11-dihydro-6-oxo-5H-dibenz[b,e]azepin-11-ylidene)propyl]-4-(4-chlorophenyl)-piperidin-4-ol], < 10 µM; that for `O=C1Nc2ncccc2C(=CCCN2CCC(O)(c3ccc(Cl)cc3)CC2)c2ccccc21` [Example 55, 4-(4-Chlorophenyl)-1-[3-(10,11-dihydro-10-oxo-5H-pyrido[2,3-c][2]benzazepin-5-ylidene)propyl]piperidin-4-ol], < 1 µM. The figure for `CN1C(=O)c2ccccc2C(=CCCN2CCC(O)(c3ccc(Cl)cc3)CC2)c2cccnc21` [Example 56, 4-(4-Chlorophenyl)-1-[3-(10,11-dihydro-11-methyl-10-oxo-5H-pyrido[2,3-c][2]benzazepin-5-ylidene)propyl]piperidin-4-ol] is < 1 µM; for `COc1ccc2c(c1)C(=CCN1CCC(O)(c3ccc(Cl)cc3)CC1)c1cccnc1CO2` [Example 57, 4-(4-Chlorophenyl)-1-[3-(5,11-dihydro-7-methoxy[1]benzoxepino [2,3-b]pyridin-5-ylidene)ethyl]piperidin-4-ol] it is < 10 µM; for `COc1ccc2c(c1)C(=CCCN1CCC(O)(c3ccccc3)CC1)c1cccnc1CO2` [Example 59, 1-[3-(5,11-Dihydro-7-methoxy[1]benzoxepino[2,3-b]pyridin-5-ylidene)propyl]piperidin-4-phenyl-4-ol] it is < 1 µM. Consider `COc1ccc2c(c1)C(=CCCN1CCC(n3c(=O)[nH]c4ccccc43)CC1)c1cccnc1CO2` [Example 67, 1-[3-(5,11-Dihydro-7-methoxy[1]benzoxepino[2,3-b]pyridin-5-ylidene)propyl]-4-(2-keto-1-benzimidazolinyl)piperidine], for which the IC50 is < 1 µM. In the case of `COc1ccc2c(c1)C(=CCCN1CCC(n3c(=O)n(C)c4ccccc43)CC1)c1cccnc1CO2` [Example 68, 1-[3-(5,11-Dihydro-7-methoxy[1]benzoxepino[2,3-b]pyridin-5-ylidene)propyl]-4-(2-keto-3-methyl-1-benzimidazolinyl)piperidine], the IC50 is < 10 µM.

For `COc1ccc2c(c1)C(=CCCN1CCC(O)(c3ccc(C)cc3)CC1)c1cccnc1CO2` [Example 78, 1-[3-(5,11-Dihydro-7-methoxy[1]benzoxepino[2,3-b]pyridin-5-ylidene)propyl]-4-(p-toly)piperidin-4-ol], the IC50 is < 1 µM. The result for `COc1ccc2c(c1)C(=CCCN1CCN(S(=O)(=O)c3ccc(C)cc3)CC1)c1cccnc1CO2` [Example 89, 1-[3-(5,11-Dihydro-7-methoxy[1]benzoxepino[2,3-b]pyridin-5-ylidene)propyl]-4-(p-tosyl)piperazine] reads > 10 µM; that for `CN(C)CCOc1ccc2c(c1)C(=CCCN1CCC(O)(c3ccc(Cl)cc3)CC1)c1cccnc1CO2` [Example 131], < 1 µM; that for `OC1(c2ccc(Cl)cc2)CCN(CCC=C2c3cc(OCc4nnn[nH]4)ccc3OCc3ncccc32)CC1` [Example 132], < 1 µM. The result for `CCOC(=O)COc1ccc2c(c1)C(=CCCN1CCC(c3ccc(Cl)cc3)CC1)c1cccnc1CO2` [Example 153, 4-(4-Chlorophenyl)-1-[3-(5,11-dihydro-7-thoxycarbonylmethyloxy[1]benzoxepino[2,3-b]pyridin-5-ylidene)propyl]piperidine] reads < 1 µM; that for `O=C(O)COc1ccc2c(c1)C(=CCCN1CCC(c3ccc(Cl)cc3)CC1)c1cccnc1CO2` [Example 154], < 1 µM; that for `COCCOc1ccc2c(c1)C(=CCCN1CCC(O)(c3ccc(Cl)cc3)CC1)c1cccnc1CO2` [Example 175], < 1 µM. The figure for `CN(C)C(=O)C(C)(C)Oc1ccc2c(c1)C(=CCCN1CCC(O)(c3ccc(Cl)cc3)CC1)c1cccnc1CO2` [Example 176, 4-(4-Chlorophenyl)-1-[3-(7-(1-dimethyaminocarbonyl-1-methyl)ethyloxy-5,11-dihydro[1]benzoxepino[2,3-b]pyridin-5-ylidene)propyl]piperidin-4-ol] is < 1 µM; for `O=C(O)C1(Oc2ccc3c(c2)C(=CCCN2CCC(O)(c4ccc(Cl)cc4)CC2)c2cccnc2CO3)CCC1` [Example 180, 1-[3-(7-(1-Carboxy)cyclbutoxy-5,11-dihydro[1]benzoxepino[2,3-b]pyridin-5-ylidene)propyl]-4-(4-chlorophenyl)piperidin-4-ol] it is < 1 µM; for `Oc1ccc2c(c1)C(=CCCN1CC=C(c3ccc(Cl)cc3)CC1)c1cccnc1CO2` [Example 193] it is < 1 µM. Turning to `CC(C)(CO)Oc1ccc2c(c1)C(=CCCN1CCC(O)(c3ccc(Cl)cc3)CC1)c1cccnc1CO2` [Example 199, 4-(4-Chlorophenyl)-1-[3-(7-(2-(1-hydroxy-2-methyl)propyl)oxy-5,11-dihydro[1]benzoxepino[2,3-b]pyridin-5-ylidene)propyl]piperidin-4-ol], the IC50 was < 1 µM.

With `CC(C)(O)COc1ccc2c(c1)C(=CCCN1CCC(O)(c3ccc(Cl)cc3)CC1)c1cccnc1CO2` [Example 200, 4-(4-Chlorophenyl)-1-[3-(7-(1-(2-methyl-2-hydroxy)propyl)oxy-5,11-dihydro[1]benzoxepino[2,3-b]pyridin-5-ylidene)propyl]piperidin-4-ol], the IC50 is < 1 µM. The figure for `CCOCCOc1ccc2c(c1)C(=CCCN1CCC(O)(c3ccc(Cl)cc3)CC1)c1cccnc1CO2` [Example 203] is < 1 µM; for `OCC(O)COc1ccc2c(c1)C(=CCCN1CCC(O)(c3ccc(Cl)cc3)CC1)c1cccnc1CO2` (centres unmarked) [Example 205, 4-(4-Chlorophenyl)-1-[3-(5,11-dihydro-7-(1-(2,3-dihydroxy)propyloxy)[1]benzoxepino[2,3-b]pyridin-5-ylidene)propyl]piperidin-4-ol] it is < 1 µM; for `CC(C)(Oc1ccc2c(c1)C(=CCCN1CCC(O)(c3ccc(Cl)cc3)CC1)c1cccnc1CO2)C(N)=O` [Example 211, 1-[3-(7-(1-Carbamoyl-1-methyl)ethyloxy-5,11-dihydro [1]benzoxepino[2,3-b]pyridin-5-ylidene)propyl]-4-(4-chlorophenyl)piperidin-4-ol] it is < 1 µM. The result for `CNC(=O)C(C)(C)Oc1ccc2c(c1)C(=CCCN1CCC(O)(c3ccc(Cl)cc3)CC1)c1cccnc1CO2` [Example 212, 4-(4-Chlorophenyl)-1-[3-(5,11-dihydro-7-(1-methylaminocarbonyl-1-methyl)ethyloxy[1]benzoxepino[2,3-b]pyridin-5-ylidene)propyl]piperidin-4-ol] reads < 1 µM; that for `CN(C)C(=O)C=Cc1ccc2c(c1)C(=CCCN1CCC(O)(c3ccc(Cl)cc3)CC1)c1cccnc1CO2` [Example 215, 4-(4-Chlorophenyl)-1-[3-(7-(2-dimethylaminocarboxy)ethenyl-5,11-dihydro[1]benzoxepino[2,3-b]pyridin-5-ylidene)propyl]piperidin-4-ol], < 1 µM; that for `CC(C)(O)c1ccc2c(c1)C(=CCCN1CCC(O)(c3ccc(Cl)cc3)CC1)c1cccnc1CO2` [Example 242, 4-(4-Chlorophenyl)-1-[3-(5,11-dihydro-7-(1-hydroxy-1-methyl)ethyl[1]benzoxepino[2,3-b]pyridin-5-ylidene)propyl]piperidin-4-ol], < 1 µM. The result for `COc1ccc2c(c1)C(=CCCN1CCOC(c3ccc(Cl)cc3)OCC1)c1cccnc1CO2` [Example 249, 5-(4-Chlorophenyl)-1-[3-(5,11-dihydro-7-methoxy[1]benzoxepino[2,3-b]pyridin-5-ylidene)propyl]-4,6-dioxazacane] reads < 1 µM; that for `CC(C)(Oc1ccc2c(c1)C(=CCC[N+]1(C)CCC(O)(c3ccc(Cl)cc3)CC1)c1cccnc1CO2)C(N)=O` (centres unmarked) [Example 262, 1-[3-(7-(1-Carbamoyl-1-methyl)ethyloxy-5,11-dihydro[1]benzoxepino[2,3-b]pyridin-5-ylidene)propyl]-4-(4-chlorophenyl)-4-hydroxy-1-methylpiperidinium iodide], < 1 µM.
